Tests used:
[1] = test system: SD male rat oral ulcer model; experiment: Efficacy in SD male rat oral ulcer model after 7 days of treatment; format: in vivo; conditions: SD male rats; for Ulcer healing rate / Ulcer area Day 7: 1 mg/rat; for Ulcer healing rate: 2 times daily for 7 days; for Ulcer healing rate / Ulcer area Day 7 / Ulcer area Day 0: n = 6; for Ulcer area Day 7: 50 μL applied to ulcer 2 times daily for 7 days; for Ulcer area Day 0: glacial acetic acid oral ulcer, Day 0 (baseline)
Protocol: Eighteen SD male rats were randomly divided into 3 groups, i.e., a model group (propylene glycol vehicle group), a 2% indigo group (1 mg/rat), and a 2% tapinarof group (1 mg/rat). Oral ulcer modeling: a 1 cm×0.6 cm filter paper (soaked into a 60% glacial acetic acid solution) was placed on the labial mucosa of the alveolar bone beneath the lower incisor in a rat and maintained for 1 min. Administration: after the rats were anesthetized, 50 μL of the solution in each group was pipetted by using a pipettor and evenly applied to the ulcer part 2 times daily for 7 consecutive days. After each group was treated with glacial acetic acid, symptoms such as pseudomembrane covering, central depression, red and swollen edges, significant pain response after stimulation, etc. appeared, and after the administration was completed, various symptoms were relieved.

[2] = test system: DB/DB male mouse diabetic foot ulcer model; experiment: Efficacy in DB/DB male mouse diabetic foot ulcer model after 10 days of treatment; format: in vivo; conditions: DB/DB male mice; for Ulcer healing rate / Ulcer area Day 10: 1 mg/mouse; for Ulcer healing rate: 2 times daily for 10 days, ** p<0.05 vs vehicle; for Ulcer healing rate / Ulcer area Day 10 / Ulcer area Day 0: n = 6; for Ulcer area Day 10: 50 μL applied to ulcer 2 times daily for 10 days; for Ulcer area Day 0: foot ulcer, Day 0 (baseline)
Protocol: Eighteen DB/DB male mice were randomly divided into 3 groups, i.e., a model group (propylene glycol vehicle group), a 2% indigo group (1 mg/mouse), and a 2% tapinarof group (1 mg/mouse).
Foot ulcer modeling: after the mouse was anesthetized, the foot was disinfected; a 4 mm×5 mm rectangular region was marked on the dorsum of the foot; and the skin and fascia were removed within the region.
Administration: on the dorsum of the foot of the mouse, 50 μL of the solution in each group was pipetted by using a pipettor and evenly applied to the ulcer part 2 times daily for 10 consecutive days, and the length and the width of the ulcer were recorded.
Statistical analysis was performed by using one-way ANOVA. As compared to the vehicle group, ** indicates p<0.05.

Question: Which results are given for `O=C1/C(=C2\Nc3ccccc3C2=O)Nc2ccccc21` [2% indigo, indigo, reference compound]?
Answer: Ulcer healing rate [1]: 52%; Ulcer area Day 7 [1]: 22.09 mm^2; Ulcer area Day 0 [1]: 46.33 mm^2; Ulcer healing rate [2]: 26%; Ulcer area Day 10 [2]: 13.30 mm^2; Ulcer area Day 0 [2]: 17.99 mm^2

Question: How did the Ulcer healing rate [1] turn out when `CC(C)c1c(O)cc(/C=C/c2ccccc2)cc1O` [2% tapinarof, tapinarof] was run?
Answer: 58%

Question: And the “Ulcer area Day 7” value [1]?
Answer: 19.70 mm^2

Question: What about the “therapeutic effect in rat oral ulcer model (in words)” value ([1]; 7 days of treatment) of the same compound?
Answer: good therapeutic effect, and its efficacy was superior to that of 2% indigo

Question: And the “Ulcer area Day 0” value [1]?
Answer: 46.90 mm^2

Question: What about the Ulcer healing rate [2] of the same compound?
Answer: 39%**

Question: What about the “Ulcer area Day 10” value [2] of the same compound?
Answer: 10.93 mm^2

Question: And the “effect in mouse diabetic foot ulcer model (in words)” value ([2]; after 10 days of administration)?
Answer: significant inhibitory effect, which was superior to that of the 2% indigo group

Question: And the “Ulcer area Day 0” value [2]?
Answer: 18.19 mm^2
